Entries after “also recorded” stand apart in the source; their conditions may differ.
Columns and labels:
Assay type in all cases: cell-based
[1] = system: MV-4-11 cells; assay: CellTiter-Glo cell viability, MV-4-11 cells; settings: cotreated 1:1 with each of CRBN ligands 8046, 8047 and 8066, MV-4-11, 72 h, 10 nM-100 μM
In short: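 Viability by CellTiter-Glo luminescence. One protocol: 5×10^4 MV-4-11 cells, 24 h, compounds at 1 nM-100 μM each; other: 1×10^4 cells, 72 h, 10 nM-100 μM each. BRD ligands combined 1:1 with CRBN ligands; dose-response curves fitted.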

[2] = target: T1, BRD4 (Homo sapiens, UniProt O60885); assay: CURE-PRO-mediated BRD4 degradation in MCF7 cells, WES (ProteinSimple); set-up: endogenous in cells
Method: WES Simple analysis was performed on WES system (ProteinSimple-Biotechne) according to the manufacturer's instructions. Total protein concentrations of cell lysates were determined by the Pierce BCA kit (Thermo Fisher). 3 μL of 0.3 μg/μL of the protein lysate was loaded onto a 12- to 230-kDa WES assay plate (ProteinSimple) where 300 nL sample was withdrawn through a capillary, subjected to electrophoretic separation of proteins by size, and followed by the simultaneous, HRP-based detection of proteins using the Anti-Rabbit Detection Module (Proteinsimple: #DM-001). The electropherograms were checked then the automatic peak detection was manually corrected if it was required.
MCF7 cells (3×10^6) were treated for 4-24 hours continually (FIG. 72), or treated for 4 h, washed and incubated for a further 4-24 h with the compounds solubilized in DMSO. Compounds were added at 10 μM each. Cells were washed, lysed, and clarified by centrifugation. The total protein concentration was quantified by the BCA method (ThermoFisher Sciences). Standardized protein samples were electrophoresed and imaged as described in the WES Proteinsimple section above. FIG. 69 depicts the CURE-PRO-mediated BRD4 degradation for the BRD-E50 monomer, and VHL ligand, 8305.
MCF7 cells (3×10^6) were treated for 24 hours with the compounds solubilized in DMSO. CURE-PRO monomers were added at 10 μM each and the proteasomal inhibitors at 1 μM. Standardized protein samples were electrophoresed and imaged as described in the WES Proteinsimple section above. FIGS. 73 and 75 depicts the dependence of the proteasome for CURE-PRO-mediated BRD4 degradation.
MCF7 cells (3×10^6) were treated for 24 hours with the compounds solubilized in DMSO. CURE-PRO monomers were added at 10 μM. FIG. 74 depicts the CURE-PRO-mediated BRD4 degradation for the BRD-E50 monomer, and VHL ligand, 8305 combined in a 1:1 ratio after 24 h.

[3] = target: T1, BRD4; assay: CURE-PRO-mediated BRD4 degradation in MCF7 cells, Western blot; set-up: endogenous in cells; settings: 1:1 with VHL ligand 8305, MCF7, 24 h, 100 nM-10 μM
Method: (§1) Namalwa, Ramosm HeLa, MCF7, or HT29 HCT116 cells (2.5-3×10^6) were treated for 24 hours with the indicated compounds solubilized in DMSO. The cells were washed in ice-cold PBS and were then lysed in RIPA lysis buffer (150 mM NaCl, 5 mM EDTA, 1% NP-40, 0.5% sodium deoxycholate, 0.1% SDS, 50 mM Tris, pH 8.0.) with Roche protease inhibitor complete cocktail and phosphatase inhibitors (10 mM sodium fluoride, 10 mM sodium pyrophosphate, 1 mM sodium orthovanadate and 20 mM β-glycerophosphate). The total protein concentrations were determined by Bradford Protein Assay (Pierce) and 10-20 μg of protein was loaded onto 4-15% Tris-Glycine gradient gels (Biorad). After standard gel electrophoresis, the separated proteins were transferred to PVDF membrane by wet transfer. The immunoblots were then blocked for 1 hour in 5% skim milk in TBST or 5% BSA in TBST, according to manufacturer's instructions, before an overnight incubation at 4° C. with indicated antibodies and membranes. Membranes were then incubated with the appropriate horseradish peroxidase-conjugated secondary antibodies (1:5,000 dilution) for 1 h at room temperature and the bands were visualized using the Clarity Max Western ECL Substrate (Biorad) and the ChemiDoc Imaging System (Biorad). Signal was detected with ECL Western Blotting Substrate (Pierce) and X-ray film processed with a Konica SRX-101 X-ray film processor or captured by Bio-Rad's Chemidoc Imaging system.
MCF7 cells (3×10^6) were treated for 24 h with the compounds solubilized in DMSO. Compounds were added at 100 nM-10 μM. Standardized protein samples were electrophoresed and imaged as described in the Immunoblotting section above. FIG. 69 depicts the CURE-PRO-mediated BRD4 degradation for the BRD-E9 monomer and VHL ligands 8305 combined in a 1:1 ratio, and FIG. 70 depicts the CURE-PRO-mediated BRD4 degradation for the BRD-E20 monomer and 8305.
MCF7 cells (3×10^6) were treated for 24 h with the compounds solubilized in DMSO. Compounds were added at 1 μM-10 μM. Standardized protein samples were electrophoresed and imaged as described in the Immunoblotting section above. FIG. 71 depicts the CURE-PRO-mediated BRD4 degradation for the BRD-E50 monomer and VHL ligands 8305 and 8304 combined in a 1:1 ratio.

[4] = target: T1, BRD4; assay: BRD protein family degradation in HCT116 cells, Western blot: BRD4; set-up: endogenous in cells
Method: as §1
HCT116 cells (3×10^6) were treated for 24 hours with the compounds solubilized in DMSO. Compounds were added at 100 nM-10 μM each. Standardized protein samples were electrophoresed and imaged as described in the Immunoblotting section above. FIGS. 64 and 65 depict the concentration-dependence of CURE-PRO-mediated BRD2 and BRD3 degradation using MDM2 ligands.

SMILES | loss of cellular viability (toxicity) versus monomers alone [1] | BRD4 degradation with proteasome inhibitors ([2]; 1:1 with 8305 at 10 μM, pre-incubation with MG-132 and Carfilzomib 1 μM, MCF7) | BRD4 degradation ([2]; 1:1 with VHL ligand 8305, MCF7, 10 μM each, 4-24 h) | BRD4 degradation ([2]; co-incubated with VHL ligand 8304, MCF7, 10 μM each) | BRD4 degradation [3] | BRD4 degradation ([4]; 1:1 with MDM2 ligands 8310 and 8312 (each), HCT116, 24 h, 100 nM-10 μM) | selectivity of degradation among BRD2, BRD3 and BRD4 ([4]; with MDM2 ligands 8310 and 8312, HCT116, Western blot)
CCNC(=O)C[C@@H]1N=C(c2ccc(Cl)cc2)c2cc(OCCCCC(=O)Nc3cccc(B(O)O)c3)ccc2-n2c(C)nnc21 [BRD-E20, (3-(5-(((4S)-6-(4-chlorophenyl)-4-(2-(ethylamino)-2-oxoethyl)-1-methyl-4H-benzo[f][1,2,4]triazolo[4,3-a][1,4]diazepin-8-yl)oxy)pentanamido)phenyl)boronic acid] | reduced viability; also recorded: increased toxicity | inhibited by the pre-incubation with MG-132 and Carfilzomib; also recorded: inhibited with the proteasome inhibitors, MG-132 and Carfilzomib | caused BRD4 degradation; also recorded: marked BRD4 degradation | failed to induce BRD4 degradation | there is degradation of BRD4 | – | –
CCNC(=O)C[C@@H]1N=C(c2ccc(Cl)cc2)c2cc(OCCOCCNC(=O)c3cccc(O)c3O)ccc2-n2c(C)nnc21 [BRD-N39, N-(2-(2-(((4S)-6-(4-chlorophenyl)-4-(2-(ethylamino)-2-oxoethyl)-1-methyl-4H-benzo[f][1,2,4]triazolo[4,3-a][1,4]diazepin-8-yl)oxy)ethoxy)ethyl)-2,3-dihydroxybenzamide] | – | – | – | – | – | caused BRD4 degradation; also recorded: Degradation is evident | some selectivity for BRD4 over BRD2 and BRD3 is noted

Reference: patent publication US20230285570A1, “THERAPEUTICALLY USEFUL CURE-PRO MOLECULES FOR E3 LIGASE MEDIATED DEGRADATION OF PROTEINS, AND METHODS OF MAKING AND USING THEM” (CORNELL UNIVERSITY, priority 2020, published 2023)
